The source of these data is PMC6304311 (Influenza and Other Respiratory Viruses, 2018).

For orientation: IC50 means the concentration that inhibits the measured activity by half.

Assay [1] addresses T1, NA from influenza A(H3N2) virus isolates (Influenza A virus, UniProt V5P6L4). The note with it: cited from earlier work.
The target in assay [2] is T1, NA from influenza A(H3N2) virus isolates. It is filed as biochemical.
Assay [3] has as its target NA from influenza A(H1N1)pdm09 virus isolates (Influenza A virus, UniProt C7FH46). The class given is biochemical.
The target in assay [4] is NA from influenza B virus isolates (Influenza B virus, UniProt A0A1S5RAG6). It is filed as biochemical.
In assay [5] the target is T2, NA from influenza A(H1N1) virus isolates (Influenza A virus, UniProt C0LLZ0). The class given is biochemical.
The target of assay [6] is T2, NA from influenza A(H1N1) virus isolates. Particulars: cited from earlier work.
The test system of assay [7] is NA from influenza A(H1N1)pdm09 virus isolates. Particulars: cited from earlier work; for IC50: read-out: IC50, susceptible reference strain.
[8] abbreviates: read-out: IC50, susceptible reference strain.

Read-outs that look alike come from different tables or passages of the source.

With `CCOC(=O)C1=C[C@@H](OC(CC)CC)[C@H](NC(C)=O)[C@@H](N)C1` [oseltamivir], the IC50 in assay [1] (setting [8]) was 0.21 nM; in assay [2] (read-out: IC50 Median (range)), 0.05 nM; in assay [2] (read-out: IC50 Statistical cutoff (X 0.75 + 3IQR)), 0.15 nM; in assay [2] (read-out: IC50 X 0.75 (75th percentile)), 0.06 nM; in assay [6] (setting [8]), 0.13 nM; in assay [7] it was 0.1 nM. The Susceptible result was “susceptible and Yes” in assay [2]; “susceptible and Yes” in assay [3]; “susceptible and Yes” in assay [4]; “susceptible and Yes and No” in assay [5]. Also, in assay [5], the outlier virus isolates was 2/4. Moreover, in assay [5], the “share of virus isolates with markedly increased IC50” value came to 97.9%.

Turning to `CC(=O)N[C@H]1[C@H]([C@H](O)[C@H](O)CO)OC(C(=O)O)=C[C@@H]1N=C(N)N` [zanamivir], the “susceptibility phenotype of reference virus” value in assay [1], in assay [6] and in assay [7] was “susceptible” each time. In addition, the Susceptible entry in assay [2] is “susceptible and Yes”; in assay [3], “susceptible and Yes”; in assay [5], “susceptible and Yes”. Also, the outlier virus isolates in assay [5] is on record as 3/4. Further, in assay [7], the IC50 was 0.42 nM.
